Where two headings read alike, the source gives them in different places.
Experiments:
[1] = test system: A/HK/7/87; test: microbe, parasite or virus in culture; type: cell-based, influenza A virus; conditions: for EC90: Influenza A virus, MDCK, 24 h, read-out: Activity against A/HK/7/87 EC90
[2] = target: A/M2 wt (Influenza A virus, UniProt P0DOF5); conditions: cited from earlier work
[3] = test system: Influenza A/H1N1 (A/PR/8/34); type: cell-based, influenza A virus
[4] = test system: MDCK cells
[5] = test system: MDCK cells; remark: listed apart in the source
[6] = read-out: Antiviral EC50 Influenza A/H1N1 CPE
[7] = read-out: Antiviral EC50 Influenza A/H1N1 MTS
[8] = MDCK, minimal alterations in cell morphology after 72 hr
[9] = minimal alterations in cell morphology after 24 hr incubation

Chain of A/M2 wt (P0DOF5 whole entry): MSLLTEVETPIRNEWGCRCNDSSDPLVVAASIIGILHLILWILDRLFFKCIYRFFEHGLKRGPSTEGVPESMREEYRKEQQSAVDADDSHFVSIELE

| SMILES | EC50 [3, 6] [µM] | EC50 [3, 7] [µM] | Cytotoxicity at 72 hr MCC (minimum cytotoxic concentration) ([4]; dog) [µM] | Activity against A/HK/7/87 EC99 [1] [µM] | other results |
| --- | --- | --- | --- | --- | --- |
| NC12CC3CC(CC(C3)C1)C2 [Amantadine, amantadine, reference compound] |  |  |  |  | Activity against A/HK/7/87 EC99 ([1]; listed as Amt): ~ 1 μM |
| NC12C3CCC4C3C3C(CCC31)C42 [Compound 8] |  |  |  |  | Activity against the wt A/M2 channel (in words) [2]: did not inhibit |
| NCC12C3CCC4C3C3C(CCC31)C42 [Compound 9] |  |  |  |  | Activity against the wt A/M2 channel (in words) [2]: did not inhibit |
| C1=CC2C3C4C5C=CC4C24CNCC54C13 [Compound 10] |  |  |  |  | Activity against the wt A/M2 channel (in words) [2]: promising activity |
| C1C2C1C1C3C4C5C6CC6C4C14CNCC54C23 (centres unmarked) [Compound 11] |  |  |  |  | Activity against the wt A/M2 channel (in words) [2]: promising activity |
| CC12CC34CNCC3(C1)CC2(C)C4.Cl [Compound 14a, 7,8-Dimethyl-3-azatetracyclo[5.2.1.1^5,8.0^1,5]undecane hydrochloride] | > 100 | > 100 | 100 |  |  |
| C1NCC23CC4CC12CC4C3.Cl [Compound 14b, 3-azatetracyclo[5.2.1.1^5,8.0^1,5]undecane hydrochloride] | > 100 | > 100 | 100 |  |  |
| C1CCC23CC45CNCC4(CC2(C1)C5)C3.O=C(O)C(O)C(O)C(=O)O [Compound 14d, 12-Azapentacyclo[6.5.1.1^3,10.0^1,10.0^3,8]pentadecane (2R,3R)-tartrate] | > 100 | > 100 |  | >10 | EC90 [1]: < 1000 nM; Cytotoxicity at 72 hr MCC (minimum cytotoxic concentration) [4, 8]: 4.0 µM; Cytotoxicity at 24 hr MCC [5, 9]: >50 µM |
| CN1CC23CC4(C)CC2(C1)CC4(C)C3.Cl [Compound 15a, 3,7,8-Trimethyl-3-azatetracyclo[5.2.1.1^5,8.0^1,5]undecane hydrochloride] | > 100 | > 100 | ≥20 |  |  |
| CN1CC23CC4CC2(CC4C3)C1.Cl [Compound 15b, 3-Methyl-3-azatetracyclo[5.2.1.1^5,8.0^1,5]undecane hydrochloride] | > 100 | > 100 | ≥100 |  |  |
| CC12CC34CN(C(=N)N)CC3(C1)CC2(C)C4.Cl [Compound 16a, 3-Amidino-7,8-dimethyl-3-azatetracyclo[5.2.1.1^5,8.0^1,5]undecane hydrochloride] | > 100 | > 100 | 4 | 0.79 | EC90 [1]: < 1000 nM; Cytotoxicity at 24 hr MCC ([5]; dog): >50 µM |
| Cl.N=C(N)N1CC23CC4CC2(CC4C3)C1 [Compound 16b, 3-Amidino-3-azatetracyclo[5.2.1.1^5,8.0^1,5]undecane hydrochloride] | > 50 | > 50 |  | ≥38 | Cytotoxicity at 24 hr MCC ([5]; dog): >50 µM |
| Cl.N=C(N)N1CC23CC45CCCCC4(C2)CC3(C1)C5 [Compound 16d, 12-Amidino-12-azapentacyclo[6.5.1.1^3,10.0^1,10.0^3,8]pentadecane hydrochloride] | > 100 | > 100 | 4.0 | >2 | EC90 [1]: < 1000 nM; Cytotoxicity at 24 hr MCC ([5]; dog): ≥10 µM |
| NC(=O)c1ncn([C@@H]2O[C@H](CO)[C@@H](O)[C@H]2O)n1 [Ribavirin, reference compound] |  |  |  | 11 | Cytotoxicity at 24 hr MCC ([5]; dog): >100 µM |
| CC(N)C12CC3CC(CC(C3)C1)C2 (centres unmarked) [Rimantadine, rimantadine, reference compound] |  |  |  | >4 | Cytotoxicity at 72 hr MCC (minimum cytotoxic concentration) [4, 8]: 500 µM; Cytotoxicity at 24 hr MCC [5, 9]: ≥500 µM |
